Reference: US8563588B2, “Imidazolone derivatives, method for the preparation thereof and biological applications” (Universite de Rennes 1, priority 2007, dated 2013)

Target: Rat recombinant DYRK1A (Rattus norvegicus, UniProt Q63470)
Assay: Assaying of the kinase activity of DYRK1A (33P-ATP, myelin basic protein, P81 filter);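 note: GST fusion rat DYRK1A made in E. coli, scintillation counting of label bound to substrate, activity as percent of the inhibitor-free maximum after blank subtraction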
Assay type: biochemical
Conditions: 15 μM ATP, 30° C., 30 min; read-out: IC50 DYRK1A
Description: Rat recombinant DYRK1A was expressed in E. coli as a GST fusion protein. It was purified by affinity chromatography on beads of immobilized glutathione (elution with free glutathione). […] After incubation at 30° C. for 30 min, 25-μL aliquots of supernatant were spotted onto Whatman P81 phosphocellulose filters and the filters were washed five times in a solution of phosphoric acid (10 ml/L water). The radioactivity incorporated into the substrate, retained on the moist filters, was then counted in the presence of ACS scintillation fluid (Amersham). The control values were subtracted and the activities were expressed as % of the maximum value, i.e. the value obtained in the absence of inhibitors. The IC50 values were calculated from dose-response curves and are given in μM.

Row | Compound | IC50
1 | CN1C(=O)/C(=C/c2ccc3c(c2)OCO3)N=C1c1ccccc1 [NL39, (5Z)-5-(1,3-Benzodioxol-5-ylmethylene)-3-methyl-2-phenyl-3,5-dihydro-4H-imidazol-4-one] | 3.2 µM
2 | CN1C(=O)/C(=C/c2ccc3c(c2)OCO3)N=C1NC(=O)c1ccccc1 [IA33] | > 10 µM
3 | COc1cc(/C=C2\N=C(SC)N(C)C2=O)cc(OC)c1OC [JR161] | > 10 µM
4 | O=C1/C(=C/c2ccc3c(c2)OCO3)NC(=S)N1c1ccccc1 [JR370] | > 10 µM
5 | CN1C(=O)/C(=C/c2ccc3c(c2)OCO3)N=C1c1ccc2c(c1)OCO2 [NL88A] | 0.22 µM
6 | CCCSC1=N/C(=C\c2c[nH]c3ccccc23)C(=O)N1C [FB14] | > 10 µM
7 | CCCNC1=N/C(=C\c2ccc3c(c2)OC(F)(F)O3)C(=O)N1C [ST092] | > 10 µM
8 | COc1cc(/C=C2\N=C(N)NC2=O)ccc1O [ST325] | 0.17 µM
9 | CC(C)SC1=N/C(=C\c2ccc3c(c2)OCO3)C(=O)N1 [ST135] | 0.46 µM
10 | CSC1=N/C(=C\c2ccc3c(c2)OCO3)C(=O)N1 [ST105] | 0.68 µM
11 | C=CCSC1=N/C(=C\c2ccc3c(c2)OCO3)C(=O)N1CCCC [SB25] | > 10 µM
12 | CCSC1=N/C(=C\c2ccc3c(c2)OCO3)C(=O)N1 [ST120] | 0.44 µM
13 | CCCNC1=N/C(=C\c2ccccc2)C(=O)N1C [FCFD08] | > 10 µM
14 | O=C1NC(=S)N/C1=C\c1ccc(O)c(O)c1 [ST227] | 66 µM

Same assay, conditions: IC50 DYRK1A, 15 μM ATP, 30° C., 30 min

Row | Compound | IC50
15 | CC(C)NC1=N/C(=C\c2ccc3c(c2)OCO3)C(=O)N1C [FCJR232] | 1.3 µM
